Measured values published in patent publication US12240862B2, “Inhibitors of peptidylarginine deiminases” (Gilead Sciences, Inc., priority 2020, dated 2025).

target: T1, human PAD4 (Homo sapiens, UniProt Q9UM07); assay: In vitro PAD4 BAEE biochemical assay; conditions: human PAD4, BAEE substrate; 5 nM PAD4, 2 mM calcium chloride, 3 mM BAEE; geometric mean of multiple experiments
T1 construct: human PAD4 (NM_012387), A2P663, was PCR amplified; His-SUMO (N, cleaved yes); made in house; host or cells: E. coli BL21(DE3)
Procedure, shortened: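 Tag-free recombinant hPAD4 (5 nM), 2 mM CaCl2, 3 mM BAEE, 50 mM MOPS pH 7.6, 2 mM DTT; 30 min compound preincubation, 2 h reaction, all 25 °C. EDTA quench; ammonia read via o-phthalaldehyde amine coupling, 1 h.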

T1 sequence (Q9UM07 2-663): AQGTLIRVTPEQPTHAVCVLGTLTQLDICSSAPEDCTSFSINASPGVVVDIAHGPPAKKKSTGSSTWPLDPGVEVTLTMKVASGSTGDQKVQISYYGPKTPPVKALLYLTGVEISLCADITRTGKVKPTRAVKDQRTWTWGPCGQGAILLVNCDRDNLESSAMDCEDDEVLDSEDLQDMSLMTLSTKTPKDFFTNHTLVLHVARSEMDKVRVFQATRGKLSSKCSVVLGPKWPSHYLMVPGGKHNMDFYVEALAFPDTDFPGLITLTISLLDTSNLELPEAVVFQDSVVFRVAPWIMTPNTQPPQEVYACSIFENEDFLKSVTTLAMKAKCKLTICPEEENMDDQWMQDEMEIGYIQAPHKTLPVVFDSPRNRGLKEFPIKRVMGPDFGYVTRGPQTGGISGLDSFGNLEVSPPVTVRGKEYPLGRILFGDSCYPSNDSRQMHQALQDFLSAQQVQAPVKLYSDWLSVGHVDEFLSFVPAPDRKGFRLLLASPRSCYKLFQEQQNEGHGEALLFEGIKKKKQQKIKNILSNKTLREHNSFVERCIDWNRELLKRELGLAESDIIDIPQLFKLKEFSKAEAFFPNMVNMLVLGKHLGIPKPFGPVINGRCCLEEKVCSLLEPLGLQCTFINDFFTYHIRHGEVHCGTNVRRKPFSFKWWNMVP

Row | Molecule | IC50 [µM]
1 | COCC1(C(=O)N[C@H](C)c2ccc3cc(-c4nc5cc(C(=O)N6[C@H]7CC[C@@H]6[C@H](N)C7)cc(OC)n5c4C)n(CC4CC4)c3n2)CCC1 [Example 29, ~{N}-[(1~{R})-1-[2-[7-[(1~{R},2~{R},4~{S})-2-amino-7-azabicyclo [2.2.1]heptane-7-carbonyl]-5-methoxy-3-methylimidazo[1,2-a]pyridin-2-yl]-1-(cyclopropylmethyl)pyrrolo[2,3-b]pyridin-6-yl]ethyl]-1-(methoxymethyl) cyclobutane-1-carboxamide] | 0.108
2 | COc1cc(C(=O)N2[C@H]3CC[C@@H]2[C@H](N)C3)cc2nc(-c3cc4ccc(C(C)CC(=O)N5CC(F)(F)C5)nc4n3CC3CC3)c(C)n12 (some centres unmarked) [Example 519, 3-[2-[7-[(1~{R},2~{R}, 4~{S})-2-amino-7-azabicyclo[2.2.1]heptane-7-carbonyl]-5-methoxy-3-methylimidazo[1,2-a]pyridin-2-yl]-1-(cyclopropylmethyl)pyrrolo[2,3-b]pyridin-6-yl]-1-(3,3-difluoroazetidin-1-yl) butan-1-one] | 0.101
3 | COc1cc(C(=O)N2[C@H]3CC[C@@H]2[C@H](N)C3)cc2nc(-c3cc4ccc([C@@H](C)NC(=O)N5CC(C(=O)O)C5)nc4n3CC3CC3)c(C)n12 [Example 237] | 0.0356
4 | [2H]C([2H])([2H])N(c1ccc2cc(-c3nc4cc(C(=O)N5C[C@H]6CC[C@@H]5[C@@H]6N)cc(OC)n4c3C)n(CC)c2n1)S(C)(=O)=O [Example 366, N-[2-[7-[(1R,4R,7R)-7-amino-2-azabicyclo[2.2.1]heptane-2-carbonyl]-5-methoxy-3-methyl-imidazo[1,2-a]pyridin-2-yl]-1-ethyl-pyrrolo [2,3-b]pyridin-6-yl]-N-(trideuteriomethyl) methanesulfonamide] | 0.499
5 | COc1cc(C(=O)N2[C@H]3CC[C@@H]2[C@H](N)C3)cc2nc(-c3cc4ccc([C@@H](C)N5CCOCC5=O)nc4n3CC3CC3)c(C)n12 [Example 274, 4-[(1~{R})-1-[2-[7-[(1~{R},2~{R},4~{S})-2-amino-7-azabicyclo[2.2.1]heptane-7-carbonyl]-5-methoxy-3-methylimidazo [1,2-a]pyridin-2-yl]-1-(cyclopropylmethyl)pyrrolo [2,3-b]pyridin-6-yl]ethyl]morpholin-3-one] | 0.252
6 | COc1cc(C(=O)N2[C@H]3CC[C@@H]2[C@H](N)C3)cc2nc(-c3cc4ccc(N5CCCCS5(=O)=O)nc4n3CC3CC3)c(C)n12 [Example 474, [(1~{R},2~{R},4~{S})-2-amino-7-azabicyclo [2.2.1]heptan-7-yl]-[2-[1-(cyclopropylmethyl)-6-(1,1-dioxothiazinan-2-yl)pyrrolo [2,3-b]pyridin-2-yl]-5-methoxy-3-methylimidazo [1,2-a]pyridin-7-yl]methanone] | 0.0442
7 | COc1cc(C(=O)N2[C@H]3CC[C@@H]2[C@H](N)C3)cc2nc(-c3cc4ccc([C@@H](C)N5CCOCC5)nc4n3CC3CC3)c(C)n12 [Example 277, [(1~{R},2~{R},4~{S})-2-amino-7-azabicyclo [2.2.1]heptan-7-yl]-[2-[1-(cyclopropylmethyl)-6-[(1~{R})-1-morpholin-4-ylethyl]pyrrolo[2,3-b]pyridin-2-yl]-5-methoxy-3-methylimidazo[1,2-a]pyridin-7-yl]methanone] | 0.191
8 | COc1cc(C(=O)N2[C@@H]3CC[C@H]2C[C@@H](N)C3)cc2nc(-c3cc4ccc(N(C(F)F)S(C)(=O)=O)nc4n3CC3CC3)c(C)n12 [Example 326, ~{N}-[2-[7-[(1~{R}, 5~{S})-3-amino-8-azabicyclo[3.2.1]octane-8-carbonyl]-5-methoxy-3-methylimidazo[1,2-a]pyridin-2-yl]-1-(cyclopropylmethyl)pyrrolo[2,3-b]pyridin-6-yl]-~{N}-(difluoromethyl) methanesulfonamide] | 3.56
9 | [(1~{R},2~{R},4~{S})-2- amino-7- azabicyclo[2.2.1]heptane-7- carbonyl]- 5-methoxy-3-methylimidazo [1,2-a]pyridin-2-yl]-1- (cyclopropylmethyl)pyrrolo [2,3-b]pyridin-6-yl]ethyl]-3- hydroxybicyclo[1.1.1] pentane-1-carboxamide [Example 87] | 0.0286
10 | CNC(=O)C1CC1c1c(-c2cc3ccc(N(C(F)F)S(C)(=O)=O)nc3n2CC2CC2)nc2cc(C(=O)N3CCC[C@@H](N)C3)ccn12 (some centres unmarked) [Example 431, 2-[7-[(3~{R})-3-aminopiperidine-1-carbonyl]-2-[1-(cyclopropylmethyl)-6-[difluoromethyl (methylsulfonyl)amino]pyrrolo[2,3-b]pyridin-2-yl]imidazo[1,2-a]pyridin-3-yl]-~{N}-methylcyclopropane-1-carboxamide] | 2.03
11 | CCc1ccc2cc(-c3nc4cc(C(=O)N5CCC6(CC6)[C@@H](N)C5)cc(OC)n4c3C)n(CC3CC3)c2n1 [Example 592, [(8~{R})-8-amino-6-azaspiro[2.5]octan-6-yl]-[2-[1-(cyclopropylmethyl)-6-ethylpyrrolo[2,3-b]pyridin-2-yl]-5-methoxy-3-methylimidazo[1,2-a]pyridin-7-yl]methanone] | 9
12 | COc1cc(C(=O)N2CCC3(CCCNC3)C2)cc2nc(-c3cc4ccc([C@@H](C)NC(=O)C56CC(F)(C5)C6)nc4n3CC3CC3)c(C)n12 (some centres unmarked) [Example 5, ~{N}-[(1~{R})-1-[1-(cyclopropylmethyl)-2-[7-(2,9-diazaspiro[4.5]decane-2-carbonyl)-5-methoxy-3-methylimidazo[1,2-a]pyridin-2-yl]pyrrolo [2,3-b]pyridin-6-yl]ethyl]-3-fluorobicyclo[1.1.1] pentane-1-carboxamide] | 19
13 | CCN(c1ccc2cc(-c3nc4cc(C(=O)N5CCC[C@@H](N)[C@H]5C)cc(OC)n4c3C)n(CC3CC3)c2n1)S(C)(=O)=O [Example 483, ~{N}-[2-[7-[(2~{R}, 3~{R})-3-amino-2-methylpiperidine-1-carbonyl]-5-methoxy-3-methylimidazo[1,2-a]pyridin-2-yl]-1-(cyclopropylmethyl)pyrrolo [2,3-b]pyridin-6-yl]-~{N}-ethylmethanesulfonamide] | 0.128
14 | COc1cc(C(=O)N2[C@H]3CC[C@@H]2[C@H](N)C3)cc2nc(-c3cc4ccc([C@@H](C)NC(=O)c5cnccn5)nc4n3CC3CC3)c(C)n12 [Example 83] | 0.0472
15 | COc1cc(C(=O)N2[C@H]3CC[C@@H]2[C@H](N)C3)cc2nc(-c3cc4ccc([C@@H](C)NC(=O)C5(C)COC5)nc4n3CC3CC3)c(C)n12 [Example 166, ~{N}-[(1~{R})-1-[2-[7-[(1~{R},2~{R},4~{S})-2-amino-7-azabicyclo[2.2.1]heptane-7-carbonyl]-5-methoxy-3-methylimidazo [1,2-a]pyridin-2-yl]-1-(cyclopropylmethyl)pyrrolo [2,3-b]pyridin-6-yl]ethyl]-3-methyloxetane-3-carboxamide] | 0.056
16 | COc1cc(C(=O)N2[C@H]3CC[C@@H]2[C@H](N)C3)cc2nc(-c3cc4ccc([C@@H](C)NC(=O)[C@H](C)O)nc4n3CC3CC3)c(C)n12 [Example 94, (2~{S})-~{N}-[(1~{R})-1-[2-[7-[(1~{R},2~{R},4~{S})-2-amino-7-azabicyclo [2.2.1]heptane-7-carbonyl]-5-methoxy-3-methylimidazo [1,2-a]pyridin-2-yl]-1-(cyclopropylmethyl)pyrrolo [2,3-b]pyridin-6-yl]ethyl]-2-hydroxypropanamide] | 0.038
17 | COc1cc(C(=O)N2[C@H]3CC[C@@H]2[C@H](N)C3)cc2nc(-c3cc4ccc([C@@H](C)Nc5ccc(F)cn5)nc4n3CC3CC3)c(C)n12 [Example 259, ((1R,2R,4S)-2-amino-7-azabicyclo[2.2.1]heptan-7-yl)(2-(1-(cyclopropylmethyl)-6-((R)-1-((5-fluoropyridin-2-yl)amino)ethyl)-1H-pyrrolo[2,3-b]pyridin-2-yl)-5-methoxy-3-methylimidazo[1,2-a]pyridin-7-yl)methanone] | 0.18
18 | COc1cc(C(=O)N2C[C@H]3CC[C@@H]2[C@@H](N)C3)cc2nc(-c3cc4ccc(N(C(F)F)S(C)(=O)=O)nc4n3CC3CC3)c(C)n12 [Example 368, ~{N}-[2-[7-[(1~{R},4~{S}, 6~{S})-6-amino-2-azabicyclo[2.2.2]octane-2-carbonyl]-5-methoxy-3-methylimidazo[1,2-a]pyridin-2-yl]-1-(cyclopropylmethyl)pyrrolo [2,3-b]pyridin-6-yl]-~{N}-(difluoromethyl) methanesulfonamide] | 43.6
19 | COc1cc(C(=O)N2[C@H]3CC[C@@H]2[C@H](N)[C@H](OC)C3)cc2nc(-c3cc4ccc([C@@H](C)NC(=O)C56CC(F)(C5)C6)nc4n3CC3CC3)c(C)n12 [Example 22, ~{N}-[(1~{R})-1-[2-[7-[(1~{R},2~{S},3~{R}, 5~{S})-2-amino-3-methoxy-8-azabicyclo [3.2.1]octane-8-carbonyl]-5-methoxy-3-methylimidazo [1,2-a]pyridin-2-yl]-1-(cyclopropylmethyl)pyrrolo[2,3-b]pyridin-6-yl]ethyl]-3-fluorobicyclo[1.1.1] pentane-1-carboxamide] | 0.483
20 | COc1cc(C(=O)N2C[C@H]3CC[C@@H]2[C@H](N)C3)cc2nc(-c3cc4ccc(N(C(F)F)S(C)(=O)=O)nc4n3CC3CC3)c(C)n12 [Example 381, ~{N}-[2-[7-[(1~{R},4~{S}, 6~{R})-6-amino-2-azabicyclo[2.2.2]octane-2-carbonyl]-5-methoxy-3-methylimidazo[1,2-a]pyridin-2-yl]-1-(cyclopropylmethyl)pyrrolo [2,3-b]pyridin-6-yl]-~{N}-(difluoromethyl) methanesulfonamide] | 0.538
